Experimental findings from US7700592B2, “α2C adrenoreceptor agonists” (Schering Corporation, priority 2005, dated 2010) are described below.

SMILES strings stand for the structures.

The target in this test is T1, α2C receptor (Homo sapiens, UniProt P18825).
T1 sequence (P18825 1-462): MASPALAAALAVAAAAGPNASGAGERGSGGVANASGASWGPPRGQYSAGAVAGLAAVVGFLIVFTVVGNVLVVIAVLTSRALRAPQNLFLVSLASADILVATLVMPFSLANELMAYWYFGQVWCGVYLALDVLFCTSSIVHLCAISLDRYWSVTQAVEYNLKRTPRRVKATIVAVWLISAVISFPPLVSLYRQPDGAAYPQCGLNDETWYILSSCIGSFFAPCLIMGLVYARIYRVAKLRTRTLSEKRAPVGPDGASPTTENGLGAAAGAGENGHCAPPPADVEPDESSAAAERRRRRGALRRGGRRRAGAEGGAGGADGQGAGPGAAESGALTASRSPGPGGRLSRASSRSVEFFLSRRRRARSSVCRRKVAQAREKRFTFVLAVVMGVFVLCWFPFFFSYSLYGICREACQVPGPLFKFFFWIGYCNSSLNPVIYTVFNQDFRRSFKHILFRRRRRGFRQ
Description: GTPγS assay, efficacy agonist activity (Emax) for α2C. It is filed as biochemical. The settings on record: active agonist = efficacy at α2C ≧30% Emax; functionally selective = additionally efficacy at α2A ≦30% Emax (GTPγS assay). In a few lines:
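Emax measured in a [^35S]GTPγS functional assay at the human α2C adrenoceptor, following Umland et al. An efficacy of ≧30% Emax defines an active α2C agonist.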
Consider `CNC(=O)N(c1ccc2c(c1)N(Cc1c[nH]cn1)CCO2)C(C)C` [Compound 46], for which the “Efficacy agonist activity (Emax, GTPγS assay) for α2C: evaluated as active or functionally selective agonist” value is listed as “active or functionally selective agonists of the α2C receptor subtype”.

Turning to `CSCCOC(=O)Nc1ccc2c(c1)N(Cc1c[nH]cn1)CCO2` [Compound 249], the “Efficacy agonist activity (Emax, GTPγS assay) for α2C: evaluated as active or functionally selective agonist” value was “active or functionally selective agonists of the α2C receptor subtype”.

For `CCN(C(=O)OCc1ccc(S(C)(=O)=O)cc1)c1ccc2c(c1)N(Cc1c[nH]cn1)CCO2` [Compound 65], the “Efficacy agonist activity (Emax, GTPγS assay) for α2C: evaluated as active or functionally selective agonist” value was “active or functionally selective agonists of the α2C receptor subtype”.

Regarding `CCN(C(=O)COCCOC)c1ccc2c(c1)N(Cc1c[nH]cn1)CCO2` [Compound 165], the “Efficacy agonist activity (Emax, GTPγS assay) for α2C: evaluated as active or functionally selective agonist” value is “active or functionally selective agonists of the α2C receptor subtype”.

Take `N#Cc1cc(Cl)c2c(c1)N(Cc1c[nH]cn1)CCO2` [Compound 253]: the “Efficacy agonist activity (Emax, GTPγS assay) for α2C: evaluated as active or functionally selective agonist” value is recorded as “active or functionally selective agonists of the α2C receptor subtype”.

Consider `CS(=O)(=O)c1ccc2c(c1)N(Cc1c[nH]cn1)CCO2` [Compound 14], for which the “Efficacy agonist activity (Emax, GTPγS assay) for α2C: evaluated as active or functionally selective agonist” value is “active or functionally selective agonists of the α2C receptor subtype”.

For `CNC(=O)Nc1ccc2c(n1)N(Cc1c[nH]cn1)CCO2` [Compound 51], the “Efficacy agonist activity (Emax, GTPγS assay) for α2C: evaluated as active or functionally selective agonist” value was “active or functionally selective agonists of the α2C receptor subtype”.

For the compound `CCN(c1ccc2c(c1)N(Cc1c[nH]cn1)CCO2)c1nccs1` [Compound 327], the “Efficacy agonist activity (Emax, GTPγS assay) for α2C: evaluated as active or functionally selective agonist” value is “active or functionally selective agonists of the α2C receptor subtype”.

Turning to `CNC(=O)N(C)c1ccc2c(c1)N(CCc1c[nH]cn1)CCO2` [Compound 58], the “Efficacy agonist activity (Emax, GTPγS assay) for α2C: evaluated as active or functionally selective agonist” value is listed as “active or functionally selective agonists of the α2C receptor subtype”.

As for `CONC(=O)N(C)c1cc(Cl)c2c(c1)N(Cc1c[nH]cn1)CCO2` [Compound 235], the “Efficacy agonist activity (Emax, GTPγS assay) for α2C: evaluated as active or functionally selective agonist” value was “active or functionally selective agonists of the α2C receptor subtype”.

Turning to `Cc1cc(COC(=O)Nc2ccc3c(c2)N(Cc2c[nH]cn2)CCO3)no1` [Compound 317], the “Efficacy agonist activity (Emax, GTPγS assay) for α2C: evaluated as active or functionally selective agonist” value is given as “active or functionally selective agonists of the α2C receptor subtype”.

Turning to `O=C(Nc1ccc2c(c1)N(Cc1c[nH]cn1)CCO2)OCc1nccs1` [Compound 310], the “Efficacy agonist activity (Emax, GTPγS assay) for α2C: evaluated as active or functionally selective agonist” value was “active or functionally selective agonists of the α2C receptor subtype”.

Take `CN(C(=O)CCCOc1ccccc1)c1ccc2c(c1)N(Cc1c[nH]cn1)CCO2` [Compound 259]: the “Efficacy agonist activity (Emax, GTPγS assay) for α2C: evaluated as active or functionally selective agonist” value is reported as “active or functionally selective agonists of the α2C receptor subtype”.

As to `CC(=O)N1CCN(Cc2c[nH]cn2)c2ccccc21` [Compound 27E], the “Efficacy agonist activity (Emax, GTPγS assay) for α2C: evaluated as active or functionally selective agonist” value is reported as “active or functionally selective agonists of the α2C receptor subtype”.

On to `CN(c1ccc2c(c1)N(Cc1c[nH]cn1)CCO2)c1ccccn1` [Compound 332], for which the “Efficacy agonist activity (Emax, GTPγS assay) for α2C: evaluated as active or functionally selective agonist” value is “active or functionally selective agonists of the α2C receptor subtype”.

On to `COC(=O)Nc1cc(Cl)c2c(c1)N(Cc1c[nH]cn1)CCO2` [Compound 20], for which the “Efficacy agonist activity (Emax, GTPγS assay) for α2C: evaluated as active or functionally selective agonist” value was “active or functionally selective agonists of the α2C receptor subtype”.

Regarding `CCN(c1ccc2c(c1)N(Cc1c[nH]cn1)CCO2)S(=O)(=O)CCN1C(=O)c2ccccc2C1=O` [Compound 335], the “Efficacy agonist activity (Emax, GTPγS assay) for α2C: evaluated as active or functionally selective agonist” value is “active or functionally selective agonists of the α2C receptor subtype”.

Regarding `CCN(C(=O)OCc1cc(C)on1)c1ccc2c(c1)N(Cc1c[nH]cn1)CCO2` [Compound 278], the “Efficacy agonist activity (Emax, GTPγS assay) for α2C: evaluated as active or functionally selective agonist” value is “active or functionally selective agonists of the α2C receptor subtype”.

`O=C(Nc1ccc2c(c1)N(Cc1c[nH]cn1)CCO2)OCc1cc2cccnc2s1` [Compound 311]: the “Efficacy agonist activity (Emax, GTPγS assay) for α2C: evaluated as active or functionally selective agonist” value is given as “active or functionally selective agonists of the α2C receptor subtype”.

Regarding `CCN(C(=O)C#CC1CC1)c1ccc2c(c1)N(Cc1c[nH]cn1)CCO2` [Compound 251], the “Efficacy agonist activity (Emax, GTPγS assay) for α2C: evaluated as active or functionally selective agonist” value is “active or functionally selective agonists of the α2C receptor subtype”.

Take `CCOC(=O)N(C)c1ccc2c(c1)N(Cc1c[nH]cn1)CCO2` [Compound 8]: the “Efficacy agonist activity (Emax, GTPγS assay) for α2C: evaluated as active or functionally selective agonist” value is “active or functionally selective agonists of the α2C receptor subtype”.

As to `COC(=O)Nc1cc(F)c2c(c1)N(C(C#N)c1c[nH]cn1)CCO2` (stereo not shown) [Compound 181], the “Efficacy agonist activity (Emax, GTPγS assay) for α2C: evaluated as active or functionally selective agonist” value is on record as “active or functionally selective agonists of the α2C receptor subtype”.

Take `CCOC(=O)Cc1ccc2c(c1)N(Cc1c[nH]cn1)CCO2` [Compound 29]: the “Efficacy agonist activity (Emax, GTPγS assay) for α2C: evaluated as active or functionally selective agonist” value is listed as “active or functionally selective agonists of the α2C receptor subtype”.

Turning to `Cc1cc(COC(=O)Nc2ccc3c(c2)N(Cc2c[nH]cn2)CCO3)n(C)n1` [Compound 340], the “Efficacy agonist activity (Emax, GTPγS assay) for α2C: evaluated as active or functionally selective agonist” value is “active or functionally selective agonists of the α2C receptor subtype”.

As to `CNC(=O)Nc1ccc2c(c1)N(Cc1c[nH]cn1)CCO2` [Compound 5], the “Efficacy agonist activity (Emax, GTPγS assay) for α2C: evaluated as active or functionally selective agonist” value is given as “active or functionally selective agonists of the α2C receptor subtype”.
